Experimental data as given in ChEMBL document CHEMBL1201862, “PubChem BioAssay data set” (2004).
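Test compounds were applied to cells in 96-well plates for 48 hours at 5 doses. GI50 = concentration required for 50% inhibition of growth.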 The source made the active and inactive calls. Cut-off read from the data, not from the text of the source: active = GI50 up to about 1.1 µM and inactive = higher.

What was measured:
Assay in all cases: NCI-60 cell line screen, 48 h
[1] = tested on: NCI/ADR-RES
[2] = tested on: SNB-75
[3] = tested on: U-251
[4] = tested on: HOP-62
[5] = tested on: K562
[6] = tested on: KM12
[7] = tested on: HOP-92
[8] = tested on: MCF7
[9] = tested on: PC-3
[10] = tested on: SF-539
[11] = tested on: HL-60
[12] = tested on: NCI-H23
[13] = tested on: HT-29
[14] = tested on: ACHN
[15] = tested on: OVCAR-4
[16] = tested on: HCT-116
[17] = tested on: SK-MEL-2
[18] = tested on: RXF 393
[19] = tested on: HCC 2998
[20] = tested on: A549
[21] = tested on: LOX IMVI
[22] = tested on: OVCAR-8
[23] = tested on: RPMI-8226
[24] = tested on: SF-295
[25] = tested on: A498
[26] = tested on: CAKI-1
[27] = tested on: NCI-H226
[28] = tested on: T47D
[29] = tested on: SR
[30] = tested on: NCI-H522
[31] = tested on: OVCAR-3
[32] = tested on: M14
[33] = tested on: MDA-MB-435
[34] = tested on: MDA-N
[35] = tested on: COLO 205
[36] = tested on: UACC-257
[37] = tested on: TK-10
[38] = tested on: OVCAR-5
[39] = tested on: SF-268
[40] = tested on: BT-549
[41] = tested on: SW-620
[42] = tested on: CCRF-CEM
[43] = tested on: HCT-15
[44] = tested on: UO-31
[45] = tested on: NCI-H460
[46] = tested on: SNB-19
[47] = tested on: SK-MEL-28
[48] = tested on: Hs-578T
[49] = tested on: SN12C
[50] = tested on: SK-MEL-5
[51] = tested on: MOLT-4
[52] = tested on: 786-0
[53] = tested on: EKVX
[54] = tested on: MDA-MB-231
[55] = tested on: IGROV-1
[56] = tested on: DU-145
[57] = tested on: UACC-62
[58] = tested on: Malme-3M
[59] = tested on: SK-OV-3

Measured: GI50

N#Cc1ccc(-c2nc3c(N)nc(-c4ccccc4)nc3o2)cc1
> 100 µM: [43]
inactive: [1] 40.3 µM | [2] 72.9 µM | [3] 5.11 µM | [4] 19.7 µM | [5] > 100 µM | [6] > 100 µM | [7] 31.5 µM | [8] > 100 µM | [9] > 100 µM | [10] 5.6 µM | [11] > 100 µM | [12] > 100 µM | [13] > 100 µM | [14] 26.9 µM | [15] 17.3 µM | [16] 31.8 µM | [17] > 100 µM | [18] 23.8 µM | [19] > 100 µM | [20] 88.7 µM | [21] > 100 µM | [22] 12.9 µM | [23] > 100 µM | [24] 51.1 µM | [25] > 100 µM | [26] > 100 µM | [27] > 100 µM | [28] > 100 µM | [29] > 100 µM | [30] 25 µM | [31] 61.4 µM | [32] > 100 µM | [33] > 100 µM | [34] > 100 µM | [35] > 100 µM | [36] > 100 µM | [37] > 100 µM | [38] > 100 µM | [39] > 100 µM | [40] > 100 µM | [41] > 100 µM | [42] > 10 µM | [44] > 100 µM | [45] > 100 µM | [46] 55.1 µM | [47] > 100 µM | [48] > 100 µM | [49] > 100 µM | [50] > 100 µM | [51] > 100 µM | [52] > 100 µM | [53] > 100 µM | [54] 13.3 µM | [55] > 100 µM | [56] 84.1 µM | [57] > 100 µM

Cc1ccc(C(=O)Cn2c(C(=O)/C=C/c3cccs3)nc3ccccc32)cc1
inactive: [1] 23.2 µM | [2] > 100 µM | [58] 24.5 µM | [59] > 100 µM | [3] 39.1 µM | [4] 67.1 µM | [5] 25.8 µM | [6] 24.2 µM | [7] 93.5 µM | [8] 29.6 µM | [9] 28.6 µM | [10] > 100 µM | [11] 22.7 µM | [12] 29.9 µM | [13] 38.5 µM | [14] 61.4 µM | [15] 29.5 µM | [16] 43.4 µM | [17] 12.6 µM | [18] 94.6 µM | [19] 21 µM | [20] 32.6 µM | [21] 26.2 µM | [23] 21.7 µM | [25] 32.1 µM | [27] > 100 µM | [28] > 100 µM | [29] 6.68 µM | [31] 31.3 µM | [32] 49.9 µM | [33] 21.3 µM | [34] 28.1 µM | [35] 41.1 µM | [36] 24.4 µM | [37] 53.2 µM | [38] > 100 µM | [39] 32.9 µM | [40] 34.4 µM | [41] 34.2 µM | [42] 11.5 µM | [44] 62.8 µM | [45] 22.4 µM | [46] 58.1 µM | [47] 68.5 µM | [48] 20.7 µM | [49] 32.9 µM | [50] 36.1 µM | [52] 45.5 µM | [54] 71.3 µM | [55] 25 µM | [56] 82 µM | [57] 87.1 µM
31.3 µM: [43]
